Where two headings read alike, the source gives them in different places.
Target: T1, ER (Homo sapiens, UniProt P03372)
T1 construct: T47D breast cancer cells were subcultured in cell culture medium; endogenous in cells; host or cells: T47D breast cancer cells
T1 sequence (P03372 1-595): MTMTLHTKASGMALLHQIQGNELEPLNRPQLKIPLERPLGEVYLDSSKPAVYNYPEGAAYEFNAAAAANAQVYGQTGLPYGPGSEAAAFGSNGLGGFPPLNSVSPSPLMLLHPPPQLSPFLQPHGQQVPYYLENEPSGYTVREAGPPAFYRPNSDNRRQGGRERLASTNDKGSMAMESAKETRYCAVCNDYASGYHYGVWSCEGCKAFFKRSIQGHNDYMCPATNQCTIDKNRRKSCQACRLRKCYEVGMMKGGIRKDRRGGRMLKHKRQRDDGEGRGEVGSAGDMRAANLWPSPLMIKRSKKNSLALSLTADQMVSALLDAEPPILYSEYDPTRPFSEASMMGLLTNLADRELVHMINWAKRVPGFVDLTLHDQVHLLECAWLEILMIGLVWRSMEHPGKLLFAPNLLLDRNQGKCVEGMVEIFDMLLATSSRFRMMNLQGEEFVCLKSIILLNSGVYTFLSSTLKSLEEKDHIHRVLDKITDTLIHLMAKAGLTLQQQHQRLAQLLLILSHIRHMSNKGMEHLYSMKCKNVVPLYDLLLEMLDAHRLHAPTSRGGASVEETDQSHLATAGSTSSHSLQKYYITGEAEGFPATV
Assay: Degradation activities on ER (ELISA) in T47D breast cancer cells
Type: cell-based
Settings: T47D cells, 24 h, ELISA; for DC50: concentration required to degrade 50% of the target protein; for Dmax: maximum percentage of target protein degraded
Protocol: T47D breast cancer cells were subcultured in cell culture medium, and then the cells in good growth condition were seeded into 96-well plates at 80 µL/well, with 2.5×10^4 cells per well. The cells were incubated in a 37° C., 5% CO2 incubator for 3 days. The drug was prepared into a 10 mM stock solution with dimethyl sulfoxide (DMSO). Prior to use, the stock solution was diluted with cell culture medium to obtain six final concentrations (100 nM, 25 nM, 6.25 nM, 1.56 nM, 0.39 nM, and […]), and gently mixed. Additionally, negative control wells (only containing culture medium) and positive control wells (only containing cells and DMSO) were included. After the cells were incubated in the incubator for 24 h, the cells were rinsed once with ice-cold 1×PBS. […] The plate was sealed with plastic film, and incubated in a 37° C. incubator for 2 h. The film was removed. 200 μL of 1× washing buffer was added to each well, and then the plate was shaken for 5 min. The washing buffer was discarded, and the plate was pat-dried. The plate was washed four times. 100 μL of freshly prepared detection antibody (green) was added to each well of the ELISA plate. The plate was sealed with plastic film, and then incubated in a 37° C. incubator for 1 h. The film was removed, and the detection antibody was discarded. The plate was pat-dried. 200 μL of 1× washing buffer was added to each well, and then the plate was shaken for 5 min. The washing buffer was discarded, and the plate was pat-dried. The plate was washed four times. 100 μL of freshly prepared HRP-labeled secondary antibody (red) was added to each well of the ELISA plate. The plate was sealed with plastic film, and incubated in a 37° C. incubator for 30 min. The film was removed, the secondary antibody was discarded, and the plate was pat-dried, followed by adding 200 μL of 1× washing buffer to each well. The plate was shaken for 5 min, and the washing buffer was discarded before pat-drying the plate. The plate was washed four times. 100 μl of TMB substrate was added to each well of the ELISA plate, followed by incubating in a 37° C. incubator for 5 min. 100 μL of STOP solution was added to each well of the ELISA plate, and the plate was gently shaken for a few seconds. The bottom of each well was wiped with lint-free cloth. Within 30 min after adding the STOP solution, the absorbance was read at 450 nm. […] The data were analyzed using the Dose-response equation in GraphPad Prism8 software to obtain the DC50 and Dmax values, and both of them are important indicators for measuring the degradation activities of compounds on target proteins. […] The Dmax value represents the maximum percentage of target protein that can be degraded by the compound.

| Structure (SMILES) | DC50 | Dmax (read-out: Dmax) | Dmax |
| --- | --- | --- | --- |
| O=C1CCC(N2Cc3cc(N4CC5(CCN(CC6CCN(c7c(F)cc([C@@H]8c9ccc(O)cc9OC[C@@H]8c8cccc(F)c8F)cc7F)CC6)CC5)C4)ccc3C2=O)C(=O)N1 (stereo partly drawn) [Example 48, 3-(5-(7-((1-(2,6-difluoro-4-(cis-3-(2,3-difluorophenyl)-7-hydroxychroman-4-yl)phenyl)piperidin-4-yl)methyl)-2,7-diazaspiro[3.5]nonane-2-yl)-1-oxoisoinodolin-2-yl)piperidin-2,6-dione] | < 10 nM | 50 to 75% | – |
| O=C1CCC(N2Cc3cc(N4CC5(CCN(CC6CCN(c7c(F)cc([C@@H]8c9ccc(OCc%10ccccc%10)cc9OC[C@@H]8c8ccccc8F)cc7F)CC6)CC5)C4)ccc3C2=O)C(=O)N1 (stereo partly drawn) [Example 51, 3-(5-(7-((1-(4-(cis-7-(benzyloxy)-3-(2-fluorophenyl)chroman-4-yl)-2,6-difluorophenyl)piperidin-4-yl)methyl)-2,7-diazaspiro[3.5]nonane-2-yl)-1-oxoisoinodolin-2-yl)piperidin-2,6-one] | > 100 nM | < 50% | – |
| O=C1CCC(N2Cc3cc(N4CC5(CCN(CC6CCN(c7c(F)cc(C8=C(c9ccccc9F)COc9cc(OCc%10ccccc%10)ccc98)cc7F)CC6)CC5)C4)ccc3C2=O)C(=O)N1 (stereo not drawn) [Example 52] | > 100 nM | < 50% | – |
| O=C1CCC(N2Cc3cc(N4CCC5(CCN(C6CCN(c7ccc([C@@H]8c9ccc(O)cc9CC[C@@H]8c8ccccc8)cc7)CC6)C5)C4)ccc3C2=O)C(=O)N1 (stereo partly drawn) [Example 66, 3-(5-(7-(1-(4-(6-hydroxyl-2-phenyl-1,2,3,4-tetrahydronaphthalen-1-yl)phenyl)piperidin-4-yl)-2,7-diazaspiro[4.4]nonane-2-yl)-1-oxoisoinodolin-2-yl)piperidin-2,6-dione] | > 100 nM | < 50% | – |
| O=C1CCC(N2Cc3cc(N4CCC(N5CC6(CCN(c7ccc([C@@H]8c9ccc(O)cc9CC[C@@H]8c8ccccc8F)cc7F)CC6)C5)CC4)ccc3C2=O)C(=O)N1 (stereo partly drawn) [Example 67, 3-(5-(4-(7-(2-fluoro-4-((1,2-cis)-2-(2-fluorophenyl)-6-hydroxyl-1,2,3,4-tetrahydronaphthalen-1-yl)phenyl)-2,7-diazaspiro[3.5]nonane-2-yl)piperidin-1-yl)-1-oxoisoinodolin-2-yl)pyridine-2,6-dione] | < 10 nM | > 75% | – |
| O=C1CCC(N2Cc3cc(N4CCC(N5CC6(CCN(c7ccc([C@@H]8c9ccc(O)cc9OC[C@@H]8c8ccccc8F)cc7F)CC6)C5)CC4)ccc3C2=O)C(=O)N1 (stereo partly drawn) [Example 68, 3-(5-(4-(7-(2-fluoro-4-((3,4-cis)-3-(2-fluorophenyl)-7-hydroxyl-chroman-4-yl)phenyl)-2,7-diazaspiro[3.5]nonane-2-yl)piperidin-1-yl)-1-oxoisoinodolin-2-yl)pyridine-2,6-dione] | < 10 nM | > 75% | – |
| O=C1CCC(N2Cc3cc(N4CCC(N5CC6(CCN(c7ccc([C@@H]8c9ccc(O)cc9CC[C@@H]8c8ccccc8)cc7F)CC6)C5)CC4)ccc3C2=O)C(=O)N1 (stereo partly drawn) [Example 69, 3-(5-(4-(7-(2-fluoro-4-((1,2-cis)-6-hydroxyl-2-phenyl-1,2,3,4-tetrahydronaphthalen-1-yl)phenyl)-2,7-diazaspiro[3.5]nonane-2-yl)piperidin-1-yl)-1-oxoisoinodolin-2-yl)pyridine-2,6-dione] | < 10 nM | > 75% | – |
| O=C1CCC(N2Cc3cc(N4CC5(CCN(CC6CCN(c7ccc([C@H]8c9ccc(O)cc9OC[C@H]8c8c(F)cccc8F)cc7F)CC6)CC5)C4)ccc3C2=O)C(=O)N1 (stereo partly drawn) [Example 71, 3-(5-(7-((1-(4-((3R,4S)-3-(2,6-difluorophenyl)-7-hydroxychroman-4-yl)-2-fluorophenyl)piperidin-4-yl)methyl)-2,7-diazaspiro[3.5]nonane-2-yl)-1-oxoisoinodolin-2-yl)piperidin-2,6-dione] | > 100 nM | < 50% | – |
| O=C1CCC(N2Cc3cc(N4CC5(CCN(CC6CCN(c7ccc([C@H]8c9ccc(O)cc9OC[C@H]8c8c(F)cccc8F)cc7)CC6)CC5)C4)ccc3C2=O)C(=O)N1 (stereo partly drawn) [Example 72, 3-(5-(7-((1-(4-((3R,4S)-3-(2,6-difluorophenyl)-7-hydroxychroman-4-yl)phenyl)piperidin-4-yl)methyl)-2,7-diazaspiro[3.5]nonane-2-yl)-1-oxoisoindol-2-yl)piperidin-2,6-dione] | – | < 50% | – |
| O=C1CCC(N2Cc3cc(N4CC5(CCN(CC6CCN(c7ccc([C@@H]8c9ccc(O)cc9OC[C@@H]8c8c(F)cccc8F)cc7)CC6)CC5)C4)ccc3C2=O)C(=O)N1 (stereo partly drawn) [Example 77, 3-(5-(7-((1-(4-((3S,4R)-3-(2,6-difluorophenyl)-7-hydroxychroman-4-yl)phenyl)piperidin-4-yl)methyl)-2,7-diazaspiro[3.5]nonane-2-yl)-1-oxoisoinodolin-2-yl)piperidin-2,6-dione] | – | – | B (B: 75-50%) |
| O=C1CC[C@@H](N2Cc3cc(N4CC5(CCN(CC6CCN(c7ccc([C@@H]8c9ccc(O)cc9OC[C@@H]8c8ccccc8F)cc7)CC6)CC5)C4)ccc3C2=O)C(=O)N1 [Example 90, (R)-3-(5-(7-((1-(4-((3S, 4R)-3-(2-fluorophenyl)-7-hydroxychroman-4-yl)phenyl)piperidin-4-yl)methyl)-2,7-diazaspiro[3.5]nonane-2-yl)-1-oxoisoinodolin-2-yl)piperidin-2,6-dione] | > 100 nM | < 50% | – |
| O=C1CC[C@H](N2Cc3cc(N4CC5(CCN(CC6CCN(c7ccc([C@@H]8c9ccc(O)cc9OC[C@@H]8c8ccccc8F)cc7)CC6)CC5)C4)ccc3C2=O)C(=O)N1 [Example 91, (S)-3-(5-(7-((1-(4-((3S, 4R)-3-(2-fluorophenyl)-7-hydroxychroman-4-yl)phenyl)piperidin-4-yl)methyl)-2,7-diazaspiro[3.5]nonane-2-yl)-1-oxoisoinodolin-2-yl)piperidin-2,6-dione] | < 10 nM | > 75% | – |
| O=C1CCC(N2Cc3cc(N4CC5(CCN(CC6CCN(c7ccc([C@@H]8c9ccc(O)cc9OC[C@@H]8CC(F)(F)F)cc7)CC6)CC5)C4)ccc3C2=O)C(=O)N1 (stereo partly drawn) [Example 92, 3-(5-(7-((1-(4-(cis-7-hydroxyl-3-(2,2,2-trifluoroethyl)chroman-4-yl)phenyl)piperidin-4-yl)methyl)-2,7-diazaspiro[3.5]nonane-2-yl)-1-oxoisoinodolin-2-yl)piperidin-2,6-dione] | 10 to 50 nM | 50 to 75% | – |
